# According to ChEMBL document CHEMBL1139379, “Design, structure-activity relationships and in vivo characterization of 4-amino-3-benzimidazol-2-ylhydroquinolin-2-ones: a novel class of receptor tyrosine kinase inhibitors” (J Med Chem, 2009):
# Legend:
# [1] = biological target: Fibroblast growth factor receptor 1 (Homo sapiens, UniProt P11362); experiment: Inhibition of human recombinant FGFR1
# [2] = biological target: Vascular endothelial growth factor receptor 2 (Homo sapiens, UniProt P35968)
# Chain of Vascular endothelial growth factor receptor 2 (P35968 whole entry): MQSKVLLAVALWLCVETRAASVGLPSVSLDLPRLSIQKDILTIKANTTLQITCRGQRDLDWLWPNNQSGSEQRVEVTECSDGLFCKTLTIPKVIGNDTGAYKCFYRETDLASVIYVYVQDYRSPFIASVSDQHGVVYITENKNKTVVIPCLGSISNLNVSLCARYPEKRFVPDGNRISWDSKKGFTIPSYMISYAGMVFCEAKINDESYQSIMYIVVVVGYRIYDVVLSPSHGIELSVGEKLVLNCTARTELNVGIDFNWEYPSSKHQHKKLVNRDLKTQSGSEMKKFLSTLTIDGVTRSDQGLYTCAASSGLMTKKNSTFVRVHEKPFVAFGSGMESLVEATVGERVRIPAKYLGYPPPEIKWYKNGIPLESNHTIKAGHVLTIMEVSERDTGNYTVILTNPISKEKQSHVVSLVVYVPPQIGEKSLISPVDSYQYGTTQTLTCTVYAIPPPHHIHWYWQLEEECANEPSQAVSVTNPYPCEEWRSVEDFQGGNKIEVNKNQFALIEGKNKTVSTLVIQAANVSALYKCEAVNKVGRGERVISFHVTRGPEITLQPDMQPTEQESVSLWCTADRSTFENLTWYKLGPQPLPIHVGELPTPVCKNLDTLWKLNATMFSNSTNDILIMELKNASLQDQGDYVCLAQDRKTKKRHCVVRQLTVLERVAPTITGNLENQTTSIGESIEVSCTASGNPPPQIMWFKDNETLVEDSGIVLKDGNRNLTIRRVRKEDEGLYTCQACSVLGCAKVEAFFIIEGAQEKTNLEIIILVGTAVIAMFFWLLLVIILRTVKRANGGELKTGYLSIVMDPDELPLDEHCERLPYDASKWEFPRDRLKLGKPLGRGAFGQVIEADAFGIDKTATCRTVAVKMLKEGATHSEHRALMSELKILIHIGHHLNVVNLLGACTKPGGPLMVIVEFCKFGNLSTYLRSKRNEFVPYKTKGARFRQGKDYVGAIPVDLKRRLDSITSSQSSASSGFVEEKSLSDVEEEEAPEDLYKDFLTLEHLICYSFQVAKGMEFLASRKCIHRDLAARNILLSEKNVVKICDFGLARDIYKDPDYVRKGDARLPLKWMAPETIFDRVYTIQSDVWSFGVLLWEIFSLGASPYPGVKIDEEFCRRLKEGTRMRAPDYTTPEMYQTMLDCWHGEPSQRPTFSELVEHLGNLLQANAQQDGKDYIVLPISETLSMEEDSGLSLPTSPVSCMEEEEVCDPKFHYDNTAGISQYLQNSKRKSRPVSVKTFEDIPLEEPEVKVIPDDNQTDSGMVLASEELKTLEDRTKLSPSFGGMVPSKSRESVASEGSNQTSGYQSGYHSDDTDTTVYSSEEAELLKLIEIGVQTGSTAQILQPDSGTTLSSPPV
# [3] = biological target: Platelet-derived growth factor receptor beta (Homo sapiens, UniProt P09619); experiment: Inhibition of human recombinant PDGFRbeta
# Chain of Platelet-derived growth factor receptor beta (P09619 whole entry): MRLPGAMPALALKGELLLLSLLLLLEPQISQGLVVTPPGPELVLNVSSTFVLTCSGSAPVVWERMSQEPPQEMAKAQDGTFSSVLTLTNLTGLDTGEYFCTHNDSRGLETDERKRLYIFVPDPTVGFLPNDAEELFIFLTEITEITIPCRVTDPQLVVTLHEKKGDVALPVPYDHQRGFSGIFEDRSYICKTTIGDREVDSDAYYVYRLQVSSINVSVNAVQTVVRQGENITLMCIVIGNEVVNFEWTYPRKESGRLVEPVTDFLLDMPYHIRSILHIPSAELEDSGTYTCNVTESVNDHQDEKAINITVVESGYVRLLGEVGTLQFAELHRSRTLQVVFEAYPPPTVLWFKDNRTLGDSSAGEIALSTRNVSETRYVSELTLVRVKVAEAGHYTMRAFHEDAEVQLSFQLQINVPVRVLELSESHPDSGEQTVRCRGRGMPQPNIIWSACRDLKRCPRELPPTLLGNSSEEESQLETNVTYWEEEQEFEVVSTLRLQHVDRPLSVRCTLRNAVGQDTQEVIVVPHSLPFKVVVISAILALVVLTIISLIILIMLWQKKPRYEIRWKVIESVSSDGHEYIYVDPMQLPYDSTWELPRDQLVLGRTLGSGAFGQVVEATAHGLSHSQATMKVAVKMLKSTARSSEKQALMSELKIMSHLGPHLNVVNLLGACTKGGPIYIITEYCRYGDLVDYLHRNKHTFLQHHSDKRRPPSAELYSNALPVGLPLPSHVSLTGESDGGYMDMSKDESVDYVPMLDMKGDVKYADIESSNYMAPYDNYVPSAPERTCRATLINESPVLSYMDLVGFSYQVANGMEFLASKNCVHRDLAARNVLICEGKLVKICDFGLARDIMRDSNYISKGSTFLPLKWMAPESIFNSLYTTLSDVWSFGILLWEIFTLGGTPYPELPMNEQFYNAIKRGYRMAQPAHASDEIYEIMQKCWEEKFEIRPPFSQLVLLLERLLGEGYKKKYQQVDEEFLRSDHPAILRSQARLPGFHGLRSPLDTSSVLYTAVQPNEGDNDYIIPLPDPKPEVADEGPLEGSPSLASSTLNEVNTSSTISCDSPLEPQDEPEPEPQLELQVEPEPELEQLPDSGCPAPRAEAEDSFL
# [4] = Inhibition of VEGF-mediated proliferation of HMVEC after 72 hrs; assay type: functional, cell-based; details: Homo sapiens
# Chain of Fibroblast growth factor receptor 1 (P11362 whole entry): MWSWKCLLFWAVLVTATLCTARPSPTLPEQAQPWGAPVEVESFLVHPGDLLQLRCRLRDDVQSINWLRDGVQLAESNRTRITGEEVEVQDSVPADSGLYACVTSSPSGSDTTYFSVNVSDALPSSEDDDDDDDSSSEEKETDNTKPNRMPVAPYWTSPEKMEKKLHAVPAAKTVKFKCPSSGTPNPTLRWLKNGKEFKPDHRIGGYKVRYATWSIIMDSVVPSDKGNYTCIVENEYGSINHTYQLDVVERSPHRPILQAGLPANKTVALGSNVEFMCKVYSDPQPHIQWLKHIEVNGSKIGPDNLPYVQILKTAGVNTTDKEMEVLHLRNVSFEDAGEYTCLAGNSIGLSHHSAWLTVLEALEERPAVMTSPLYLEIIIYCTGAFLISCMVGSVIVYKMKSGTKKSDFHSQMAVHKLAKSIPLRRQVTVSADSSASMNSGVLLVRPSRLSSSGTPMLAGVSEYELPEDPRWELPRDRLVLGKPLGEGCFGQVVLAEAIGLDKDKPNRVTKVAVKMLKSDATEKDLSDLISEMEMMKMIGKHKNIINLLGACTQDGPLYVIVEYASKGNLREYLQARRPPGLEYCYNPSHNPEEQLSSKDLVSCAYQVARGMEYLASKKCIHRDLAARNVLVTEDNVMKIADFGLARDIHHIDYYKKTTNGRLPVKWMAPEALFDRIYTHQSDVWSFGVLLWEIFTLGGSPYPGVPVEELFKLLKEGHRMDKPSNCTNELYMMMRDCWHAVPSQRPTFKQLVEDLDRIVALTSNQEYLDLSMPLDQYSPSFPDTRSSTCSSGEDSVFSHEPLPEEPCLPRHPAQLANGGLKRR
Compound,IC50 [1] [µM],IC50 [2] [µM],IC50 [3] [µM],EC50 [4] [µM]
O=c1[nH]c2ccccc2cc1-c1nc2ccccc2[nH]1,0.39,1.7,0.07,0.24
Nc1c(-c2nc3cc(N4CCOCC4)ccc3[nH]2)c(=O)[nH]c2ccccc12,0.03,0.057,0.005,0.051
CN1CCN(c2ccc3[nH]c(-c4c(N)c5ccccc5[nH]c4=O)nc3c2)CC1,0.009,0.042,0.002,0.019
O=c1[nH]c2ccccc2c(O)c1-c1nc2ccccc2[nH]1,0.09,0.24,0.02,0.42
Nc1c(-c2nc3ccccc3[nH]2)c(=O)[nH]c2ccccc12,0.03,0.058,0.01,0.078
CNc1ccc2c(N)c(-c3nc4ccc(N5CCN(C)CC5)cc4[nH]3)c(=O)[nH]c2c1,0.37,1,0.009,0.27
CN1CCN(c2ccc3[nH]c(=O)c(-c4nc5ccccc5[nH]4)c(N)c3c2)CC1,4.1,6.5,0.13,
CN1CCN(c2ccc3[nH]c(-c4c(N)c5cc(N(C)C)ccc5[nH]c4=O)nc3c2)CC1,0.083,0.16,0.007,2
CN1CCN(c2ccc3[nH]c(-c4c(N)c5cc(NC(=O)c6ccccc6)ccc5[nH]c4=O)nc3c2)CC1,0.9,0.98,0.039,
CN1CCN(c2ccc3nc(-c4c(N)c5cc(NCc6ccccc6)ccc5[nH]c4=O)[nH]c3c2)CC1,0.008,0.021,0.0006,1.1
CN1CCCC(Oc2cccc3[nH]c(=O)c(-c4nc5ccccc5[nH]4)c(N)c23)C1 (stereo unspecified),0.001,0.005,0.0001,0.01
CN1CCN(c2ccc3[nH]c(-c4c(N)c5c(Cl)cccc5[nH]c4=O)nc3c2)CC1,0.002,0.014,0.0003,0.012
Cc1cccc2[nH]c(=O)c(-c3nc4ccc(N5CCN(C)CC5)cc4[nH]3)c(N)c12,0.003,0.012,0.0007,0.005
CN1CCN(Cc2ccc3[nH]c(-c4c(N)c5ccccc5[nH]c4=O)nc3c2)CC1,0.009,,0.002,
CN(C)CC(=O)N(C)c1ccc2[nH]c(-c3c(N)c4ccccc4[nH]c3=O)nc2c1,0.003,0.029,0.001,0.024
CN(C)c1c(-c2nc3ccccc3[nH]2)c(=O)[nH]c2ccccc12,0.39,0.86,0.07,> 10
CCC1CCN(C)C(Nc2c(-c3nc4ccccc4[nH]3)c(=O)[nH]c3ccccc23)C1 (stereo unspecified),0.19,0.17,0.0002,0.072
CN(C)[C@H]1CCN(c2ccc3[nH]c(-c4c(N)c5ccccc5[nH]c4=O)nc3c2)C1,0.02,0.06,0.004,0.042
Cn1c(-c2c(O)c3ccccc3[nH]c2=O)nc2ccccc21,7.9,> 25,1.1,> 10
Cn1c(-c2c(O)c3ccccc3n(C)c2=O)nc2ccccc21,> 25,> 25,> 25,> 10
